Source: US20240116985A1, “STAPLED PEPTIDES AND METHODS THEREOF” (priority 2020, published 2024)
In brackets after ≈: the same amount, converted by molar mass. Read-outs that look alike come from different tables or passages of the source.

Assays:
CHI Log D procedure = type: physicochemical; details: for chromatographic logD: pH 7.4, CHI Log D; for CHI Log D: pH 7.4
Solubility in PBS = type: physicochemical
Outline: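 Steps: ultracentrifuge the peptide PBS solution, inject the supernatant on HPLC, inject a 50 μM peptide DMSO solution as reference, then calculate solubility as area ratio (PBS/DMSO) × 50 uM.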

[1] = biological target: T1, full-length beta-Catenin (Uniprot ID P35222) (Homo sapiens, UniProt P35222); experiment: Fluorescence polarization IC50 (beta-catenin / 5FAM-TCF4 10-53 competition); type: binding
T1 construct: 10 nM full-length beta-Catenin (Uniprot ID P35222)
T1 sequence (P35222 1-781): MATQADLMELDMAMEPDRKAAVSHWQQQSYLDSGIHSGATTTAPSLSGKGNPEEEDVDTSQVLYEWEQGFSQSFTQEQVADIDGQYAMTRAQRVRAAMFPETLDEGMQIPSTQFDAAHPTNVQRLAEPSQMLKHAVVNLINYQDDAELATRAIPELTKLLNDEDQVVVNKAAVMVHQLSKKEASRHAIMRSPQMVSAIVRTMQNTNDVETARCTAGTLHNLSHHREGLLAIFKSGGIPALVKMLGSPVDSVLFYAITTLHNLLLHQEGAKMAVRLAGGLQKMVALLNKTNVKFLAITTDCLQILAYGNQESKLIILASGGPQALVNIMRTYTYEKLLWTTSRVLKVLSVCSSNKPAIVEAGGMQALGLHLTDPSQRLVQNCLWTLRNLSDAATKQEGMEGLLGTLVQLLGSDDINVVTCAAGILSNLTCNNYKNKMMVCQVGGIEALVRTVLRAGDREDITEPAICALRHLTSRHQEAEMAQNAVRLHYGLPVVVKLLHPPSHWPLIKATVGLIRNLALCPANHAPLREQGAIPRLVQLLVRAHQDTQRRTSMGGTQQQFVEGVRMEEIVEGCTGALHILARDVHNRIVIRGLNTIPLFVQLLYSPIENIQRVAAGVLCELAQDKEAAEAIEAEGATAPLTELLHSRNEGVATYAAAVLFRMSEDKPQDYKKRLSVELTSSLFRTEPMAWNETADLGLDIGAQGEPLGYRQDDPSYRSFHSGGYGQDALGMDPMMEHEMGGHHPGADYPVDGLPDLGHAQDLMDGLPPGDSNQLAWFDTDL

[2] = fluorescence polarization, read-out: beta-Catenin FP IC50

| SMILES | chromatographic logD (CHI Log D procedure) | Solubility (Solubility in PBS; Solubility (uM)) | IC50 [1, 2] | Solubility (Solubility in PBS) | CHI Log D (CHI Log D procedure) | IC50 ([1]; read-out: FP EC50) |
| --- | --- | --- | --- | --- | --- | --- |
| CC[C@H](C)[C@@H]1NC(=O)[C@H](CC(=O)O)NC(=O)[C@]2(CC=CCCCC3(CCCC=CCCCCCC[C@@](C)(C(=O)N[C@@H](Cc4ccsc4)C(=O)N[C@@H](Cc4csc5ccccc45)C(=O)N[C@@H](CCC(N)=O)C(N)=O)NC(=O)[C@H](CC(N)=O)NC(=O)[C@H](Cc4ccccc4)NC(=O)[C@H](C)NC(=O)[C@H](C)NC(=O)[C@H](CC(=O)O)NC(=O)[C@H](CC(=O)O)NC3=O)NC1=O)CCCN2C(C)=O (stereo partly drawn) [I-551, Ac-PL3-Asp-Ile-B5-Asp-Asp-Ala-Ala-Phe-Asn-S8-3Thi-BztA-Gln-NH2] |  |  | 45 nM | 50 µM (≈ 93.1 µg/mL) | 2.278 | 45 nM |
| CC[C@H](C)[C@@H]1NC(=O)[C@H](CC(=O)O)NC(=O)[C@]2(CC=CCCCC3(CCCC=CCCCCCC[C@@](C)(C(=O)N[C@@H](Cc4ccccc4OC)C(=O)N[C@@H](Cc4csc5ccccc45)C(=O)N[C@@H](Cc4c[nH]cn4)C(N)=O)NC(=O)[C@H](CC(N)=O)NC(=O)[C@H](Cc4ccccc4)NC(=O)[C@H](C)NC(=O)[C@H](C)NC(=O)[C@H](CC(=O)O)NC(=O)[C@H](CC(=O)O)NC3=O)NC1=O)CCCN2C(C)=O (stereo partly drawn) [I-554, Ac-PL3-Asp-Ile-B5-Asp-Asp-Ala-Ala-Phe-Asn-S8-2OMeF-BztA-His-NH2] |  |  | 27.5 nM | 35 µM (≈ 66.3 µg/mL) | 2.457 | 27.5 nM |
| CC[C@H](C)[C@@H]1NC(=O)[C@H](CC(=O)O)NC(=O)[C@]2(CC=CCCCC3(CCCC=CCCCCCC[C@@](C)(C(=O)N[C@@H](Cc4ccsc4)C(=O)N[C@@H](Cc4csc5ccccc45)C(=O)N[C@@H](Cc4c[nH]cn4)C(N)=O)NC(=O)[C@H](CC(N)=O)NC(=O)[C@H](Cc4ccccc4)NC(=O)[C@H](C)NC(=O)[C@H](C)NC(=O)[C@H](CC(=O)O)NC(=O)[C@H](CC(=O)O)NC3=O)NC1=O)CCCN2C(C)=O (stereo partly drawn) [I-555, Ac-PL3-Asp-Ile-B5-Asp-Asp-Ala-Ala-Phe-Asn-S8-3Thi-BztA-His-NH2] |  |  | 41 nM | 41 µM (≈ 76.7 µg/mL) | 2.374 | 41 nM |
| CC[C@H](C)[C@@H]1NC(=O)[C@H](CC(=O)O)NC(=O)[C@]2(CC=CCCCC3(CCCC=CCCCCCC[C@@](C)(C(=O)N[C@@H](Cc4ccsc4)C(=O)N[C@@H](Cc4csc5ccccc45)C(=O)N[C@@H](Cc4c[nH]cn4)C(N)=O)NC(=O)[C@H](CC(N)=O)NC(=O)[C@H](Cc4ccccc4)NC(=O)[C@H](C)NC(=O)[C@H](C)NC(=O)[C@H](CC(=O)O)NC(=O)[C@H](CC(=O)O)NC3=O)NC1=O)CCCN2C(C)=O (stereo partly drawn) [I-556, Ac-PL3-Asp-Ile-B5-Asp-Asp-Ala-Ala-Phe-Asn-S8-3Thi-BztA-His-NH2] |  |  | 20 nM | 39 µM (≈ 72.9 µg/mL) | 2.435 | 20 nM |
| CC(=O)N1CCC[C@]12CC=CCCCC1(CCCC=CCCCCCC[C@@](C)(C(=O)N[C@@H](Cc3ccccc3)C(=O)N[C@@H](Cc3csc4ccccc34)C(=O)N[C@@H](Cc3c[nH]cn3)C(N)=O)NC(=O)[C@H](CCC(N)=O)NC(=O)[C@H](Cc3ccccc3)NC(=O)[C@H](C)NC(=O)[C@H](C)NC(=O)[C@H](CC(=O)O)NC(=O)[C@H](CC(=O)O)NC1=O)NC(=O)[C@H](CC(C)C)NC(=O)[C@H](CC(=O)O)NC2=O (stereo partly drawn) [I-561, Ac-PL3-Asp-Leu-B5-Asp-Asp-Ala-Ala-Phe-Gln-S8-Phe-BztA-His-NH2] |  |  | 34 nM | 14 µM (≈ 26.3 µg/mL) | 2.437 | 34 nM |
| CC[C@@H]1NC(=O)[C@H](CC(=O)O)NC(=O)[C@]2(CC=CCCCC3(CCCC=CCCCCCC[C@@](C)(C(=O)N[C@@H](Cc4ccccc4)C(=O)N[C@@H](Cc4csc5ccccc45)C(=O)N[C@@H](CCC(N)=O)C(N)=O)NC(=O)[C@H](CCC(N)=O)NC(=O)[C@H](Cc4ccccc4)NC(=O)[C@H](C)NC(=O)[C@H](C)NC(=O)[C@H](CCC(=O)O)NC(=O)[C@H](CC(=O)O)NC3=O)NC1=O)CCCN2C(C)=O (stereo partly drawn) [I-569, Ac-PL3-Asp-Abu-B5-Asp-Glu-Ala-Ala-Phe-Gln-S8-Phe-BztA-Gln-NH2] |  |  | 42 nM | 49 µM (≈ 90.9 µg/mL) | 2.169 | 42 nM |
| CC[C@@H]1NC(=O)[C@H](CC(=O)O)NC(=O)[C@]2(CC=CCCCC3(CCCC=CCCCCCC[C@@](C)(C(=O)N[C@@H](Cc4ccccc4)C(=O)N[C@@H](Cc4csc5ccccc45)C(=O)N[C@@H](Cc4c[nH]cn4)C(N)=O)NC(=O)[C@H](CC(N)=O)NC(=O)[C@H](Cc4ccccc4)NC(=O)[C@H](C)NC(=O)[C@H](C)NC(=O)[C@H](CC(=O)O)NC(=O)[C@H](CC(=O)O)NC3=O)NC1=O)CCCN2C(C)=O (stereo partly drawn) [I-575, Ac-PL3-Asp-Abu-B5-Asp-Asp-Ala-Ala-Phe-Asn-S8-Phe-BztA-His-NH2] |  |  | 21 nM | 46 µM (≈ 84.5 µg/mL) | 2.21 | 21 nM |

The remaining lines, values ahead:

| chromatographic logD (CHI Log D procedure) | Solubility (Solubility in PBS; Solubility (uM)) | IC50 [1, 2] | Solubility (Solubility in PBS) | CHI Log D (CHI Log D procedure) | IC50 ([1]; read-out: FP EC50) | SMILES |
| --- | --- | --- | --- | --- | --- | --- |
| 2.75 | 23 µM (≈ 42 µg/mL) | 4470 nM |  |  |  | CCNC(=O)C[C@@H]1NC(=O)C2(CCCC=CCCCCCC[C@@](C)(C(=O)N[C@@H](Cc3ccccc3)C(=O)N[C@@H](Cc3csc4ccccc34)C(=O)N[C@@H](CCC(N)=O)C(N)=O)NC(=O)[C@H](C(C)C)NC(=O)[C@H](Cc3ccccc3)NC(=O)[C@H](C)NC(=O)[C@H](C)NC(=O)[C@H](CC(=O)O)NC1=O)CCCC=CC[C@]1(CCCN1C(C)=O)C(=O)N[C@@H](CC(=O)O)C(=O)N[C@@H](C)C(=O)N2 (stereo partly drawn) [I-536, Ac-PL3-Asp-Ala-B5-[NHEt]AsnR-Asp-Ala-Ala-Phe-Val-S8-Phe-BztA-Gln-NH2] |
| 2.87 | 11 µM (≈ 20.2 µg/mL) | 5000 nM |  |  |  | CCCNC(=O)C[C@@H]1NC(=O)C2(CCCC=CCCCCCC[C@@](C)(C(=O)N[C@@H](Cc3ccccc3)C(=O)N[C@@H](Cc3csc4ccccc34)C(=O)N[C@@H](CCC(N)=O)C(N)=O)NC(=O)[C@H](C(C)C)NC(=O)[C@H](Cc3ccccc3)NC(=O)[C@H](C)NC(=O)[C@H](C)NC(=O)[C@H](CC(=O)O)NC1=O)CCCC=CC[C@]1(CCCN1C(C)=O)C(=O)N[C@@H](CC(=O)O)C(=O)N[C@@H](C)C(=O)N2 (stereo partly drawn) [I-537, Ac-PL3-Asp-Ala-B5-[NHnPr]AsnR-Asp-Ala-Ala-Phe-Val-S8-Phe-BztA-Gln-NH2] |
| 2.75 | 33 µM (≈ 60.6 µg/mL) | 5000 nM |  |  |  | CC(=O)N1CCC[C@]12CC=CCCCC1(CCCC=CCCCCCC[C@@](C)(C(=O)N[C@@H](Cc3ccccc3)C(=O)N[C@@H](Cc3csc4ccccc34)C(=O)N[C@@H](CCC(N)=O)C(N)=O)NC(=O)[C@H](C(C)C)NC(=O)[C@H](Cc3ccccc3)NC(=O)[C@H](C)NC(=O)[C@H](C)NC(=O)[C@H](CC(=O)O)NC(=O)[C@H](CC(=O)NC3CC3)NC1=O)NC(=O)[C@H](C)NC(=O)[C@H](CC(=O)O)NC2=O (stereo partly drawn) [I-538, Ac-PL3-Asp-Ala-B5-[NHCyPr]AsnR-Asp-Ala-Ala-Phe-Val-S8-Phe-BztA-Gln-NH2] |
| 2.94 |  | 5000 nM | 10 µM (≈ 18.5 µg/mL) |  |  | CC(=O)N1CCC[C@]12CC=CCCCC1(CCCC=CCCCCCC[C@@](C)(C(=O)N[C@@H](Cc3ccccc3)C(=O)N[C@@H](Cc3csc4ccccc34)C(=O)N[C@@H](CCC(N)=O)C(N)=O)NC(=O)[C@H](C(C)C)NC(=O)[C@H](Cc3ccccc3)NC(=O)[C@H](C)NC(=O)[C@H](C)NC(=O)[C@H](CC(=O)O)NC(=O)[C@H](CC(=O)NC3CCC3)NC1=O)NC(=O)[C@H](C)NC(=O)[C@H](CC(=O)O)NC2=O (stereo partly drawn) [I-539, Ac-PL3-Asp-Ala-B5-[NHCyBu]AsnR-Asp-Ala-Ala-Phe-Val-S8-Phe-BztA-Gln-NH2] |
|  |  | 180 nM | 50 µM (≈ 94.3 µg/mL) | 2.087 | 180 nM | CO[C@H](C)[C@@H]1NC(=O)[C@H](CC(=O)O)NC(=O)[C@]2(CC=CCCCC3(CCCC=CCCCCCC[C@@](C)(C(=O)N[C@@H](Cc4ccccc4)C(=O)N[C@@H](Cc4csc5ccccc45)C(=O)N[C@@H](CCC(N)=O)C(N)=O)NC(=O)[C@H](CCC(N)=O)NC(=O)[C@H](Cc4ccccc4)NC(=O)[C@H](C)NC(=O)[C@H](C)NC(=O)[C@H](CCC(=O)O)NC(=O)[C@H](CC(=O)O)NC3=O)NC1=O)CCCN2C(C)=O (stereo partly drawn) [I-541, Ac-PL3-Asp-TOMe-B5-Asp-Glu-Ala-Ala-Phe-Gln-S8-Phe-BztA-Gln-NH2] |
|  |  | 109 nM | 39 µM (≈ 73.5 µg/mL) | 2.135 | 109 nM | CO[C@H](C)[C@@H]1NC(=O)[C@H](CC(=O)O)NC(=O)[C@]2(CC=CCCCC3(CCCC=CCCCCCC[C@@](C)(C(=O)N[C@@H](Cc4ccccc4)C(=O)N[C@@H](Cc4csc5ccccc45)C(=O)N[C@@H](CCC(N)=O)C(N)=O)NC(=O)[C@H](CCC(N)=O)NC(=O)[C@H](Cc4ccccc4)NC(=O)[C@H](C)NC(=O)[C@H](C)NC(=O)[C@H](CCC(=O)O)NC(=O)[C@H](CC(=O)O)NC3=O)NC1=O)CCCN2C(C)=O (stereo partly drawn) [I-542, Ac-PL3-Asp-TOMe-B5-Asp-Glu-Ala-Ala-Phe-Gln-S8-Phe-BztA-Gln-NH2] |
